Measurements as given in patent publication US10329307B2, “Heterocyclic compounds as inhibitors of platelet aggregation” (UNIVERSITE DE MONTREAL, priority 2015, dated 2019).

Target: PAR4 (Homo sapiens (Human), UniProt Q96RI0)
Test: FLIPR assay in PAR4-expressing HEK293 cells (PAR4 antagonist activity)
Assay type: cell-based
Conditions: H-Ala-Phe(4-F)-Pro-Gly-Trp-Leu-Val-Lys-Asn-Gly-NH2-induced intracellular calcium mobilization, 11-point curves
Text: The FLIPR assay is an exemplary in vitro assay for measuring the activity of the PAR4 antagonists of the present invention. In this assay, intracellular calcium mobilization is induced in PAR4 expressing cells by a PAR4 agonist and calcium mobilization is monitored. See, e.g., Example A.
HEK293 cells stably expressing PAR4 were generated by a standard method of transfection of human […] cDNA expression vector or by RAGE technology from Athersys Inc. (Cleveland, Ohio) and selected based on PAR4 protein expression of mRNA expression. […] These cells express endogenous PAR1 and can elicit calcium signal upon stimulation with PAR1 agonist peptide. Cells were grown in Dulbecco's Modified Eagle's Medium (DMEM) (Invitrogen, Carlsbad, Calif.), 10% FBS, 1% PSG, 3 μg/ml puromycin and 25 nM Methotrexate) at 37° C. with 5% CO2.
FLIPR-based calcium mobilization assay in HEK293 cells was used to measure PAR4 antagonism, agonism, and selectivity against PAR1. […] Counter screens for agonist activity and PAR1 antagonist activity were also performed. Briefly, PAR1/PAR4-expressing HEK293 cells were grown in DMEM (Life Technology, Grand Island, N.Y.) containing 10% heat-inactivated FBS, 1% Penicillin-Streptomycin, 10 μg/mL blasticidin, and 100 μg/mL Zeocin at 37° C. with 5% CO2. Cells were plated overnight prior to the experiment in a black 384-well Purecoat Amine clear bottom plate (Becton Dickinson Biosciences, San Jose, Calif.) at 10,000 cells/well in 30 μL growth medium and incubated in a humidified chamber at 37° C. with 5% CO2 overnight. Prior to compound addition, the cell medium was replaced with 40 μL of 1× calcium and magnesium-containing Hank's Balanced Saline Solution (HBSS) (with 20 mM HEPES) and 1:1000 diluted fluorescent calcium indicator (Codex Biosolutions, Gaithersburg, Md.). After a 30 minute incubation period at 37° C. and a further 30 minute incubation and equilibration period at room temperature, 20 μL test compound (diluted in 1×HBSS buffer) was added at various concentrations at 0.17% dimethyl sulfoxide (DMSO) final concentration. Changes in fluorescence intensity were measured using a Functional Drug Screening System (FDSS, Hamamatsu, Japan) to determine agonist activities. The cells were then incubated for 30 minutes at room temperature followed by addition of 20 μL of agonist peptide for antagonist activity measurement. […] Compound potency was derived from 11-point concentration-response curves.
As indicated above, the FLIPR assay, an in vitro assay, measures the PAR4 antagonist activity of compounds tested as described in Example A.

Sequence of PAR4 (Q96RI0 18-385): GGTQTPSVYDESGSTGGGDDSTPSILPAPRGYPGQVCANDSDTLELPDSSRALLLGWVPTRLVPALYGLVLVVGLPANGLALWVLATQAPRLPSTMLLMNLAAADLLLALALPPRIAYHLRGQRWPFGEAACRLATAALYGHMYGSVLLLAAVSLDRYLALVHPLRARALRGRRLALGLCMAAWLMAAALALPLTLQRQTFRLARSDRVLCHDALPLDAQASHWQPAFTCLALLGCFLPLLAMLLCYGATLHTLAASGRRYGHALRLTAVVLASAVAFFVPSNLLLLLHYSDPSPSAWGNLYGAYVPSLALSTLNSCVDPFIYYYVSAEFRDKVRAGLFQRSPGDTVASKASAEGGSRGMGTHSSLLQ

SMILES | IC50
COc1cc(OCC2CCN(c3ccc(C#N)cc3)CC2)c2cc(-c3cn4nc(OC)sc4n3)oc2c1 [Example 48] | 1100 nM
COc1cc(OCC2CCN(c3ccc(Cl)cc3)CC2)c2cc(-c3cn4nc(OC)sc4n3)oc2c1 [Example 49] | 2700 nM
COc1cc(OCC2CCN(c3ccc(F)cc3)CC2)c2cc(-c3cn4nc(OC)sc4n3)oc2c1 [Example 50] | 4800 nM
COc1cc(OCC2CCN(c3ccccc3)CC2)c2cc(-c3cn4nc(OC)sc4n3)oc2c1 [Example 51] | 5000 nM
COc1cc(OC[C@H]2CCCN(c3ccc(F)cc3)C2)c2cc(-c3cn4nc(OC)sc4n3)oc2c1 [Example 52] | 1100 nM
COc1cc(OC[C@@H]2CCCN(c3ccccc3)C2)c2cc(-c3cn4nc(OC)sc4n3)oc2c1 [Example 53] | 1800 nM
COc1cc(OC[C@H]2CCCN(c3ccccc3)C2)c2cc(-c3cn4nc(OC)sc4n3)oc2c1 [Example 54] | 1400 nM
COc1cc(OCC2CCCCN2c2ccc(Cl)cc2)c2cc(-c3cn4nc(OC)sc4n3)oc2c1 (stereo not shown) [Example 55] | 720 nM
COc1cc(OCC2CCCCN2c2ccc(Cl)cc2)c2cc(-c3cn4nc(OC)sc4n3)oc2c1 (stereo not shown) [Example 57] | 740 nM
COc1cc(OC[C@H]2CCCN(Cc3ccc(Cl)cc3)C2)c2cc(-c3cn4nc(OC)sc4n3)oc2c1 [Example 58] | 1400 nM
COc1cc(OC[C@H]2CCCN(C(=O)OCc3ccccc3)C2)c2cc(-c3cn4nc(OC)sc4n3)oc2c1 [Example 59] | 1200 nM
COc1cc(OCC2CCCN(c3nncs3)C2)c2cc(-c3cn4nc(OC)sc4n3)oc2c1 (stereo not shown) [Example 60] | 2700 nM
CCOC(=O)c1cnc(N2CCCC(COc3cc(OC)cc4oc(-c5cn6nc(OC)sc6n5)cc34)C2)s1 (stereo not shown) [Example 61] | 1500 nM
COc1cc(OCC2CCCN(c3ncc(Br)s3)C2)c2cc(-c3cn4nc(OC)sc4n3)oc2c1 (stereo not shown) [Example 62] | 1900 nM
COc1cc(OCC2CCCN(c3ccc(Cl)cn3)C2)c2cc(-c3cn4nc(OC)sc4n3)oc2c1 (stereo not shown) [Example 63] | 860 nM
COc1cc(OCC2CCCN(c3ccc(Cl)cn3)C2)c2cc(-c3cn4nc(OC)sc4n3)oc2c1 (stereo not shown) [Example 64] | 820 nM
COc1cc(OCC2CCCN(c3ncc(Br)cn3)C2)c2cc(-c3cn4nc(OC)sc4n3)oc2c1 (stereo not shown) [Example 66] | 1400 nM
COc1cc(OCC2CCC(=O)N(c3ccc(Cl)cc3)C2)c2cc(-c3cn4nc(OC)sc4n3)oc2c1 (stereo not shown) [Example 67] | 3300 nM
COc1cc(OCC2CCCN(c3ccc(NC(=O)OC(C)(C)C)cc3)C2)c2cc(-c3cn4nc(OC)sc4n3)oc2c1 (stereo not shown) [Example 68] | 2100 nM
COc1cc(OCC2CCCN(c3ccc(NC(=O)OC(C)(C)C)nc3)C2)c2cc(-c3cn4nc(OC)sc4n3)oc2c1 (stereo not shown) [Example 69] | 3200 nM
COc1ccc(COc2ccc(N3CCCC(COc4cc(OC)cc5oc(-c6cn7nc(OC)sc7n6)cc45)C3)cc2)cc1 (stereo not shown) [Example 70] | 3500 nM
COc1cc(OCC2CCCN(c3ccc(NC(=O)C(F)(F)F)nc3)C2)c2cc(-c3cn4nc(OC)sc4n3)oc2c1 (stereo not shown) [Example 71] | 1300 nM
COc1cc(OC[C@@H]2CCCN(c3ccc(F)cc3)C2)c2cc(-c3cn4nc(OC)sc4n3)oc2c1 [Example 72] | 1400 nM
COc1cc(OCC2CCCN(C3CCOCC3)C2)c2cc(-c3cn4nc(OC)sc4n3)oc2c1 (stereo not shown) [Example 73] | 47000 nM
COc1cc(OCC2CCCN(c3ccc(N)nc3)C2)c2cc(-c3cn4nc(OC)sc4n3)oc2c1 (stereo not shown) [Example 74] | 28000 nM
